{"source": "the kinase profiling compilation of Christmann-Franck et al. (2016)", "assay_in_all_cases": "KINOMEscan competition binding", "conditions_in_all_cases": "compound 1.0 µM", "key": {"[1]": {"system": "FLT3 (human), P36888 [N841I]"}, "[2]": {"target": "PDGFRB (human) (UniProt P09619)"}, "[3]": {"target": "MAK (human) (UniProt P20794)", "sequence (P20794 whole entry, looked up)": "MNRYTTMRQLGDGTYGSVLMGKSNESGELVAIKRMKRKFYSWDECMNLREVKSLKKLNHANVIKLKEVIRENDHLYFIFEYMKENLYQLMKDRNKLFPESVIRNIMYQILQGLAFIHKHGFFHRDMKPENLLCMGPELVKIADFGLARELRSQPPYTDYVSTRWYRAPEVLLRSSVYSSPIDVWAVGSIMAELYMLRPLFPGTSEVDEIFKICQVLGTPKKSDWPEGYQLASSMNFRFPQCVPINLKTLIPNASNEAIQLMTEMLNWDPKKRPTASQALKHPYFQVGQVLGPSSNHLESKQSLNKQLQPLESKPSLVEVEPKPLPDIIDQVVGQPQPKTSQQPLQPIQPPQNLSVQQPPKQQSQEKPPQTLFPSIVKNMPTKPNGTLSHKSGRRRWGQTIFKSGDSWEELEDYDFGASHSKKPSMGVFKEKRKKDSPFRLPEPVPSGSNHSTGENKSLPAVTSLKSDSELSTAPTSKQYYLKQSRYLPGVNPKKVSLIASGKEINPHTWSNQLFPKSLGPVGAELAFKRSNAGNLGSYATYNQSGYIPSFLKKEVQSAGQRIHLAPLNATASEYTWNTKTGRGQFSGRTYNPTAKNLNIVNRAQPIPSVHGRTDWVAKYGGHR"}, "[4]": {"target": "NTRK3 (human) (UniProt Q16288)", "sequence (Q16288 whole entry, looked up)": "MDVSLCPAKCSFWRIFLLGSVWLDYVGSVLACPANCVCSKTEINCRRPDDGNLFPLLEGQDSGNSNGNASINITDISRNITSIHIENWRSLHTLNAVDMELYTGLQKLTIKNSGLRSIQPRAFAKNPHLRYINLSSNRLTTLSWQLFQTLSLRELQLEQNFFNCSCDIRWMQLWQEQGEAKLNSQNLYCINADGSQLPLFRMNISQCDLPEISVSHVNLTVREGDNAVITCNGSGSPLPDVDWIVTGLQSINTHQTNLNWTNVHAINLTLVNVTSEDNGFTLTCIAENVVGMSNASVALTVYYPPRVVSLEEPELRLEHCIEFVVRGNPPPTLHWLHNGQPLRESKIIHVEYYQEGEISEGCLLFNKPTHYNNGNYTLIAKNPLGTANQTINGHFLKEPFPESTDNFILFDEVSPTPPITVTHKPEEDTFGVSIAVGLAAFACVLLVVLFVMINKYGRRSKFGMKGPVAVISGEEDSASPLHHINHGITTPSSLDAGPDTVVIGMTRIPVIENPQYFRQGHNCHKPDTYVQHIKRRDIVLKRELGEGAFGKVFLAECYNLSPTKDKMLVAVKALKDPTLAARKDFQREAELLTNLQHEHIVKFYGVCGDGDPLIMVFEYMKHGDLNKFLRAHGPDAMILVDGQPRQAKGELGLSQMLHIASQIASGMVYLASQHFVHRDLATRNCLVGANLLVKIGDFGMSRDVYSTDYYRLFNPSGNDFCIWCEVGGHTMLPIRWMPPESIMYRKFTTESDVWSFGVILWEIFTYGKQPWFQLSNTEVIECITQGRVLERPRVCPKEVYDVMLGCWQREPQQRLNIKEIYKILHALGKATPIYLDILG"}, "[5]": {"target": "TLK1 (human) (UniProt Q9UKI8)"}, "[6]": {"target": "AKT2 (human) (UniProt P31751)", "sequence (P31751 whole entry, looked up)": "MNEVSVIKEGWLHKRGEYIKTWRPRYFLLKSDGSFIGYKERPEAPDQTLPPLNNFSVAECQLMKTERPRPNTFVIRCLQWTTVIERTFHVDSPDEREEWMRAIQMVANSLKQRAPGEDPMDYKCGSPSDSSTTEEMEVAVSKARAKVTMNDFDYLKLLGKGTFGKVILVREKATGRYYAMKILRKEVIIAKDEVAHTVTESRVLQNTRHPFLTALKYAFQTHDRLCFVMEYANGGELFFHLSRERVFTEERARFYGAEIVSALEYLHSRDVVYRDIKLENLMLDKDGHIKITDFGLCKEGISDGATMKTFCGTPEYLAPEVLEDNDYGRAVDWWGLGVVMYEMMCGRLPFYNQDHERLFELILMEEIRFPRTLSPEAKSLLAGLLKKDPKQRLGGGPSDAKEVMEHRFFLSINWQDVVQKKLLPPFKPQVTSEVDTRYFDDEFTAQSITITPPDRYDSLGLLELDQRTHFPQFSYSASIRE"}, "[7]": {"target": "MAP4K3 (human) (UniProt Q8IVH8)"}, "[8]": {"target": "RAF1 (human) (UniProt P04049)"}, "[9]": {"target": "MARK4 (human) (UniProt Q96L34)"}, "[10]": {"target": "TGFBR2 (human) (UniProt P37173)"}, "[11]": {"target": "SLK (human) (UniProt Q9H2G2)"}, "[12]": {"target": "KDR (human) (UniProt P35968)"}, "[13]": {"target": "JAK2 JH1 catalytic (human) (UniProt O60674)"}, "[14]": {"target": "CDK17 (human) (UniProt Q00537)"}, "[15]": {"target": "EPHA8 (human) (UniProt P29322)"}, "[16]": {"target": "CIT (human) (UniProt O14578)"}, "[17]": {"target": "TEC (human) (UniProt P42680)"}, "[18]": {"target": "DDR1 (human) (UniProt Q08345)"}, "[19]": {"target": "YES1 (human) (UniProt P07947)"}, "[20]": {"target": "TSSK1B (human) (UniProt Q9BXA7)"}, "[21]": {"target": "PIM1 (human) (UniProt P11309)", "sequence (P11309 whole entry, looked up)": "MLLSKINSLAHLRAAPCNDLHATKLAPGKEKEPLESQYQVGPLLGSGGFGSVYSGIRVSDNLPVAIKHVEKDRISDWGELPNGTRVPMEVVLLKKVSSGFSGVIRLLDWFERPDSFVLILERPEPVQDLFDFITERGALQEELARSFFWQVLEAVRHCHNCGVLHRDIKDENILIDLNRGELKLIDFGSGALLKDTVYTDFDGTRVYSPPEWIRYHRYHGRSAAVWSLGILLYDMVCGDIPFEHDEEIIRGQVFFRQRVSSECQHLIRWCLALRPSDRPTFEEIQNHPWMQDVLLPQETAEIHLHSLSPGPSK"}, "[22]": {"target": "STK38 (human) (UniProt Q15208)", "sequence (Q15208 whole entry, looked up)": "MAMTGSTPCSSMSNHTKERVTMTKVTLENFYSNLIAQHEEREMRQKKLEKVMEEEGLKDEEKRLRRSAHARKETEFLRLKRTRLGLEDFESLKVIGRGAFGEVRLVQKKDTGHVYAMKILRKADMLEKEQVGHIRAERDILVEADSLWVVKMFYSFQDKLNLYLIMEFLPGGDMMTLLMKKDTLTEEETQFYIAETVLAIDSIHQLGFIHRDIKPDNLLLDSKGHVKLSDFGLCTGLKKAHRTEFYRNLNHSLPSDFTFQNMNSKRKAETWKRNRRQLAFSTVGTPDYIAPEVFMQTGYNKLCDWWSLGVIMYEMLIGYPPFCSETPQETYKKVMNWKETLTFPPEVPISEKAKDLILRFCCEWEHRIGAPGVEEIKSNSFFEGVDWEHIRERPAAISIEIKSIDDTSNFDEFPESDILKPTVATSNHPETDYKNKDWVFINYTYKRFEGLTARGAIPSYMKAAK"}, "[23]": {"target": "FLT3 (human) (UniProt P36888)"}, "[24]": {"target": "SIK1 (human) (UniProt P57059)"}, "[25]": {"target": "PRKX (human) (UniProt P51817)"}, "[26]": {"system": "ABL1 (human), P00519 [M351T]"}, "[27]": {"system": "FLT3 (human), P36888 [K663Q]"}, "[28]": {"target": "NLK (human) (UniProt Q9UBE8)"}, "[29]": {"target": "SBK1 (human) (UniProt Q52WX2)"}, "[30]": {"target": "DAPK1 (human) (UniProt P53355)", "sequence (P53355 whole entry, looked up)": "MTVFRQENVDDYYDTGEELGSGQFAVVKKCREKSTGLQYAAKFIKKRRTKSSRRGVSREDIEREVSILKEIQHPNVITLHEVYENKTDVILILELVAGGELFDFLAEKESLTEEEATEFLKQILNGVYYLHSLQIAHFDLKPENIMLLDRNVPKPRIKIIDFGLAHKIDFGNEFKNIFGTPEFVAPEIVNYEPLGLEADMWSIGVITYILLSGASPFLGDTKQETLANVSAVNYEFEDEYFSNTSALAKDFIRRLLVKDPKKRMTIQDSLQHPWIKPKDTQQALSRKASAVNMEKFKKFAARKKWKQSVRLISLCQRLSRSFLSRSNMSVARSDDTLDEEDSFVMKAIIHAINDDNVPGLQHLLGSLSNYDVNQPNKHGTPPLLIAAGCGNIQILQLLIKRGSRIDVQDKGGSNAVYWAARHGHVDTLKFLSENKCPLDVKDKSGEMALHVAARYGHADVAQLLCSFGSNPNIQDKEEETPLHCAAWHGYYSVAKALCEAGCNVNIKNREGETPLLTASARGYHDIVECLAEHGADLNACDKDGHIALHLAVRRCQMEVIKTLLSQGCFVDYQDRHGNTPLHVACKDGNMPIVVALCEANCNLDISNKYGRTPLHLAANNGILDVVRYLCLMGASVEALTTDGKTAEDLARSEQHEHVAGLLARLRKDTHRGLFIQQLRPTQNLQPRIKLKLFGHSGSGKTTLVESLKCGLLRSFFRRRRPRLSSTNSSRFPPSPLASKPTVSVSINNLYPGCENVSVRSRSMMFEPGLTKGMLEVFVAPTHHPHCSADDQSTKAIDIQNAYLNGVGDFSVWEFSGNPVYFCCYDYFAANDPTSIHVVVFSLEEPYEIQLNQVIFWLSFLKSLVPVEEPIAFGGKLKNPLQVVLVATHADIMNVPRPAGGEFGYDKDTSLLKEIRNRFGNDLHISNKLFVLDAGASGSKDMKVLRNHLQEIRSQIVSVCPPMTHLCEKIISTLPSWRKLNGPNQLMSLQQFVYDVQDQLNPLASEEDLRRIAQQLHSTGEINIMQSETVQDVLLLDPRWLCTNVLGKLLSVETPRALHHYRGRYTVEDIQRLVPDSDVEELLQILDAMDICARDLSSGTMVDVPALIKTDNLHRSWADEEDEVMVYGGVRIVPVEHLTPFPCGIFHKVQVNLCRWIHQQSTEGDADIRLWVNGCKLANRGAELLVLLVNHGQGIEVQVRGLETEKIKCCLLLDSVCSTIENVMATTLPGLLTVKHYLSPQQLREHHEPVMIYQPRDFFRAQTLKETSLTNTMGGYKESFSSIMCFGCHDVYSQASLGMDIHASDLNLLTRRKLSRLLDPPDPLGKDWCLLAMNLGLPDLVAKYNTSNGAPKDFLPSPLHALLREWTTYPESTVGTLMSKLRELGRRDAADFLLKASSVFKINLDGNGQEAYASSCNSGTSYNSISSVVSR"}, "[31]": {"target": "ULK3 (human) (UniProt Q6PHR2)"}, "[32]": {"target": "CAMK2A (human) (UniProt Q9UQM7)"}, "[33]": {"target": "MAST1 (human) (UniProt Q9Y2H9)"}, "[34]": {"target": "RPS6KA5 KD1 (human) (UniProt O75582)", "sequence (O75582 whole entry, looked up)": "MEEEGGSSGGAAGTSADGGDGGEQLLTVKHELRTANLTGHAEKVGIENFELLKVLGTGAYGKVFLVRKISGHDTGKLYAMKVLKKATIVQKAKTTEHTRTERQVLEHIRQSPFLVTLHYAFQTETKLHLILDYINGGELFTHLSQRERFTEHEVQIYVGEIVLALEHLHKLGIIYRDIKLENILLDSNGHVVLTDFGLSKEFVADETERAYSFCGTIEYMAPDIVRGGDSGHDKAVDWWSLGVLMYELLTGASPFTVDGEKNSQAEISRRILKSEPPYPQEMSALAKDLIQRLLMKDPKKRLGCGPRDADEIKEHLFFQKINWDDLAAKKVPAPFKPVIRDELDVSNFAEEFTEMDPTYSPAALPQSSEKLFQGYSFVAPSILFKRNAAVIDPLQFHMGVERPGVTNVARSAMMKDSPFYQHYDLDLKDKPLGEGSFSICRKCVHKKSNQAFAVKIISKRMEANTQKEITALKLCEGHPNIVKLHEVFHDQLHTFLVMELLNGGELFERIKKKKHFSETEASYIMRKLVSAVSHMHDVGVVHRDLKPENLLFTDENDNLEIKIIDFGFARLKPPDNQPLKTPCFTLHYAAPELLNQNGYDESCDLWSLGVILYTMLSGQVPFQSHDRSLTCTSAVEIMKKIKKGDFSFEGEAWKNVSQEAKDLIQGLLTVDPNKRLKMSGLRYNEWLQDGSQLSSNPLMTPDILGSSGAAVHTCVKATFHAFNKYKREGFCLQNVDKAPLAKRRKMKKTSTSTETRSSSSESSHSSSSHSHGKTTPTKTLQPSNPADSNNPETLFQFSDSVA"}, "[35]": {"target": "PKMYT1 (human) (UniProt Q99640)"}, "[36]": {"target": "CDKL5 (human) (UniProt O76039)"}, "[37]": {"target": "LTK (human) (UniProt P29376)"}, "[38]": {"target": "CAMK2B (human) (UniProt Q13554)"}, "[39]": {"target": "LIMK1 (human) (UniProt P53667)"}, "[40]": {"target": "EPHA7 (human) (UniProt Q15375)"}}, "data": [{"smiles": "Nc1cc(C(F)(F)F)c(-c2cc(N3CCOCC3)nc(N3CCOCC3)n2)cn1", "values": [{"measurement": "inhibition of binding", "setting": "[1]", "value": 6, "unit": "%"}, {"measurement": "inhibition of binding", "setting": "[2]", "value": 0, "unit": "%"}, {"measurement": "inhibition of binding", "setting": "[3]", "value": 0, "unit": "%"}, {"measurement": "inhibition of binding", "setting": "[4]", "value": 0, "unit": "%"}, {"measurement": "inhibition of binding", "setting": "[5]", "value": 12, "unit": "%"}, {"measurement": "inhibition of binding", "setting": "[6]", "value": 0, "unit": "%"}, {"measurement": "inhibition of binding", "setting": "[7]", "value": 0, "unit": "%"}, {"measurement": "inhibition of binding", "setting": "[8]", "value": 7, "unit": "%"}, {"measurement": "inhibition of binding", "setting": "[9]", "value": 0, "unit": "%"}, {"measurement": "inhibition of binding", "setting": "[10]", "value": 24, "unit": "%"}, {"measurement": "inhibition of binding", "setting": "[11]", "value": 0, "unit": "%"}, {"measurement": "inhibition of binding", "setting": "[12]", "value": 0, "unit": "%"}, {"measurement": "inhibition of binding", "setting": "[13]", "value": 12, "unit": "%"}, {"measurement": "inhibition of binding", "setting": "[14]", "value": 26, "unit": "%"}, {"measurement": "inhibition of binding", "setting": "[15]", "value": 0, "unit": "%"}, {"measurement": "inhibition of binding", "setting": "[16]", "value": 0, "unit": "%"}, {"measurement": "inhibition of binding", "setting": "[17]", "value": 3, "unit": "%"}, {"measurement": "inhibition of binding", "setting": "[18]", "value": 7, "unit": "%"}, {"measurement": "inhibition of binding", "setting": "[19]", "value": 0, "unit": "%"}, {"measurement": "inhibition of binding", "setting": "[20]", "value": 5, "unit": "%"}, {"measurement": "inhibition of binding", "setting": "[21]", "value": 2, "unit": "%"}, {"measurement": "inhibition of binding", "setting": "[22]", "value": 1, "unit": "%"}, {"measurement": "inhibition of binding", "setting": "[23]", "value": 8, "unit": "%"}, {"measurement": "inhibition of binding", "setting": "[24]", "value": 0, "unit": "%"}, {"measurement": "inhibition of binding", "setting": "[25]", "value": 0, "unit": "%"}, {"measurement": "inhibition of binding", "setting": "[26]", "value": 0, "unit": "%"}, {"measurement": "inhibition of binding", "setting": "[27]", "value": 0, "unit": "%"}, {"measurement": "inhibition of binding", "setting": "[28]", "value": 0, "unit": "%"}, {"measurement": "inhibition of binding", "setting": "[29]", "value": 17, "unit": "%"}, {"measurement": "inhibition of binding", "setting": "[30]", "value": 2, "unit": "%"}, {"measurement": "inhibition of binding", "setting": "[31]", "value": 17, "unit": "%"}, {"measurement": "inhibition of binding", "setting": "[32]", "value": 2, "unit": "%"}, {"measurement": "inhibition of binding", "setting": "[33]", "value": 0, "unit": "%"}, {"measurement": "inhibition of binding", "setting": "[34]", "value": 0, "unit": "%"}, {"measurement": "inhibition of binding", "setting": "[35]", "value": 0, "unit": "%"}, {"measurement": "inhibition of binding", "setting": "[36]", "value": 50, "unit": "%"}, {"measurement": "inhibition of binding", "setting": "[37]", "value": 0, "unit": "%"}, {"measurement": "inhibition of binding", "setting": "[38]", "value": 18, "unit": "%"}, {"measurement": "inhibition of binding", "setting": "[39]", "value": 0, "unit": "%"}, {"measurement": "inhibition of binding", "setting": "[40]", "value": 0, "unit": "%"}]}]}
